{"source": "patent US11311522B1", "about": "(Cavion, Inc., priority 2018, dated 2022)", "target": "T1, hERG (Homo sapiens, UniProt Q12809)", "T1 construct": "expressed in transfected cells; host or cells: CHO-K1", "T1 sequence (Q12809 whole entry)": "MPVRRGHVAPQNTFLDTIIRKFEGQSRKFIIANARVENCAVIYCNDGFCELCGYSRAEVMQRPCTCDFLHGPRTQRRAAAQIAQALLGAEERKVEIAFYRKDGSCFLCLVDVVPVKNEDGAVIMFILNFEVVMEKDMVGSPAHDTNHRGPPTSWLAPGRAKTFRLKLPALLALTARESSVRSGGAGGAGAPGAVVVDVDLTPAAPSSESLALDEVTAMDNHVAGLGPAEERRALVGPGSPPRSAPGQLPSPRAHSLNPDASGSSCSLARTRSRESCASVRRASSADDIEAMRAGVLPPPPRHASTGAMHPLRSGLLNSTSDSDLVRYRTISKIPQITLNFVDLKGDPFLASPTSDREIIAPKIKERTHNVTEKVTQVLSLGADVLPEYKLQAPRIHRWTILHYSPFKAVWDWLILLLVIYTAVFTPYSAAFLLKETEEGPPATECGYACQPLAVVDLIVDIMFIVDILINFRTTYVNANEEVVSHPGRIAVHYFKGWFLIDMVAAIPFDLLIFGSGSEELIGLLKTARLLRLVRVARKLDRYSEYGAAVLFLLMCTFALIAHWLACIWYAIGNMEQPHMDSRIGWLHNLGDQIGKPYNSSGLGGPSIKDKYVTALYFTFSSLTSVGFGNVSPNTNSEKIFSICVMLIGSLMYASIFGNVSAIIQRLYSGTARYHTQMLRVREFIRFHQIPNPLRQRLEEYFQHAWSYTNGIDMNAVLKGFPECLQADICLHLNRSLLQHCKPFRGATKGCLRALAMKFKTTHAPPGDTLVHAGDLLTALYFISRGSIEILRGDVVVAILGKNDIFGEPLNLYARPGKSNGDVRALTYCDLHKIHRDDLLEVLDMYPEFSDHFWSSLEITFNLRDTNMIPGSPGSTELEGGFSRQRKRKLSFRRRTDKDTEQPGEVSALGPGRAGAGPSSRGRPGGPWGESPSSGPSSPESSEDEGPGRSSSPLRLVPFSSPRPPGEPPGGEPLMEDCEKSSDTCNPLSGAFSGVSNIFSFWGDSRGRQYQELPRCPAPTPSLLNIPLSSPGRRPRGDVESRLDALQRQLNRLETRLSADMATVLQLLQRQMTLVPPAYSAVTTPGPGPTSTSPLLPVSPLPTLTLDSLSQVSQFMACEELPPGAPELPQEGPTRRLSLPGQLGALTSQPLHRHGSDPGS", "assay": "hERG whole-cell voltage-clamp (CHO-K1 cells)", "type": "cell-based", "conditions": "hERG current"}
{"smiles": "CC(C)c1ccc(CC(=O)N[C@H](C)c2ccc(OCC(F)(F)F)cn2)cc1", "note": "[CX-8998]", "values": [{"measurement": "IC50", "result": 21, "unit": "µM"}, {"measurement": "IC20", "setting": "human, CHO-K1 cells expressing hERG", "result": 4, "unit": "µM"}]}
